Measurements from paper PMC12090182, “Repurposing of the RIPK1-Selective Benzo[1,4]oxazepin-4-one Scaffold for the Development of a Type III LIMK1/2 Inhibitor” (ACS Chemical Biology, 2025).

How the values were obtained:
Experiment in all cases: DSF selectivity screening
Format in all cases: binding
Conditions in all cases: 10 μM compound
[1] = target: AKT3A (Homo sapiens, UniProt Q9Y243)
Method in brief: (§1)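 Protein melting monitored by SYPRO Orange fluorescence at 465 nm excitation, 590 nm emission, using 2 μM kinase domain with compound at 10 μM. Buffer: 20 mM HEPES pH 7.5, 500 mM NaCl; heating step 3 °C/min. Tm defined as transition inflection point via Boltzmann equation.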

[2] = target: BMP2KA (Homo sapiens, UniProt Q9NSY1)
BMP2KA, sequence (Q9NSY1 38-345): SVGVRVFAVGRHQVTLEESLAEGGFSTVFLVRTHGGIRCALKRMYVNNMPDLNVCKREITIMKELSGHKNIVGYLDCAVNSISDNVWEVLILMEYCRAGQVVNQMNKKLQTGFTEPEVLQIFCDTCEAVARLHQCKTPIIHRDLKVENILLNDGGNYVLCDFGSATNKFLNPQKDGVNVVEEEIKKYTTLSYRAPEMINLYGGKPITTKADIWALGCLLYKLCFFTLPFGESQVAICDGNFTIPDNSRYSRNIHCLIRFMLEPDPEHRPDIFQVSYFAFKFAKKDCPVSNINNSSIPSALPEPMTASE
Method in brief: as §1

[3] = target: BMPR2A (Homo sapiens, UniProt Q13873)
BMPR2A, sequence (Q13873 189-517): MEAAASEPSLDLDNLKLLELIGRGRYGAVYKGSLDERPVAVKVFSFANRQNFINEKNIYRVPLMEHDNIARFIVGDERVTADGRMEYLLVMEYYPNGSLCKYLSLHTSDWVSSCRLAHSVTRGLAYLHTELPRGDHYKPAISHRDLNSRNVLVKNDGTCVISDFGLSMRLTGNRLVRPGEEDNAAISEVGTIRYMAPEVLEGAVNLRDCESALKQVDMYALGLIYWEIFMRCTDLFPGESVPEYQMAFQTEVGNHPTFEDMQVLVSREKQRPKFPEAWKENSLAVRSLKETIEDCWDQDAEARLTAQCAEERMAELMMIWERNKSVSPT
Method in brief: as §1

[4] = target: CAMK1GA (Homo sapiens, UniProt Q96NX5)
Method in brief: as §1

[5] = target: CAMK2BA (Homo sapiens, UniProt Q13554)
CAMK2BA, sequence (Q13554 11-303): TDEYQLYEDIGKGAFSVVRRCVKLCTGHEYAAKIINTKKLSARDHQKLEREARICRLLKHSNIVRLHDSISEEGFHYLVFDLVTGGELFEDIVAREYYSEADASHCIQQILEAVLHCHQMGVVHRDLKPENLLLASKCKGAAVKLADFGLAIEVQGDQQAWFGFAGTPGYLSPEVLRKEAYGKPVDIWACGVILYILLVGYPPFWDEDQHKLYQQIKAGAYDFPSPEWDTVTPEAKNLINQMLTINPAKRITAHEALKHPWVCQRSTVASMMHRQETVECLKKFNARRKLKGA
Method in brief: as §1

[6] = target: CASKA (Homo sapiens, UniProt O14936)
Method in brief: as §1

[7] = target: CDK2A (Homo sapiens, UniProt P24941)
Method in brief: as §1

[8] = target: CSNK1DA (Homo sapiens, UniProt P48730)
Method in brief: as §1

[9] = target: CSNK2A1A (Homo sapiens, UniProt P68400)
CSNK2A1A, sequence (P68400 whole entry): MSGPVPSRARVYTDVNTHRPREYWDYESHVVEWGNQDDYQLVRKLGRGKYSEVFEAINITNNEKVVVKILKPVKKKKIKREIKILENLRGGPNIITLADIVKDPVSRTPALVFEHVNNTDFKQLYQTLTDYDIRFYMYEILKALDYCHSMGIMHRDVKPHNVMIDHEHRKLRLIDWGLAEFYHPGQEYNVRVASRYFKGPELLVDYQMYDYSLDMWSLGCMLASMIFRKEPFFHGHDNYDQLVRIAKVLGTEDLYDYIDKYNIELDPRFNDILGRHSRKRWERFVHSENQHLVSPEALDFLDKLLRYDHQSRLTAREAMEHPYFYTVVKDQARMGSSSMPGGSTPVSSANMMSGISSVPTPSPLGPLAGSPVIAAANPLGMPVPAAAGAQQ
Method in brief: as §1

[10] = target: DAPK3A (Homo sapiens, UniProt O43293)
DAPK3A, sequence (O43293 9-289): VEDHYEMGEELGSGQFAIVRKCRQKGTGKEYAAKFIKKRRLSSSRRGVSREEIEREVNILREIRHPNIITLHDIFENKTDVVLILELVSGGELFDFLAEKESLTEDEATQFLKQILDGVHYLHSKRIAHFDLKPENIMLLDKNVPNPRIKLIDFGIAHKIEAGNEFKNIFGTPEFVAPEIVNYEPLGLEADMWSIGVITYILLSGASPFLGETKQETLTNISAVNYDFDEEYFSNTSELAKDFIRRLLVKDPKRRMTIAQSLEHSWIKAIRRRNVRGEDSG
Method in brief: as §1

[11] = target: DYRK2A (Homo sapiens, UniProt Q92630)
Method in brief: as §1

[12] = target: EPHA2A (Homo sapiens, UniProt P29317)
Method in brief: as §1

[13] = target: FESA (Homo sapiens, UniProt P07332)
Method in brief: as §1

[14] = target: FGFR1B (Homo sapiens, UniProt P11362)
Method in brief: as §1

[15] = target: FGFR3A (Homo sapiens, UniProt P22607)
Method in brief: as §1

[16] = target: GAKA (Homo sapiens, UniProt O14976)
Method in brief: as §1

[17] = target: GPRK5A (Homo sapiens, UniProt P34947)
Method in brief: as §1

[18] = target: GSK3BB (Homo sapiens, UniProt P49841)
Method in brief: as §1

[19] = target: MAP2K1A (Homo sapiens, UniProt Q02750)
Method in brief: as §1

[20] = target: MAP2K4A (Homo sapiens, UniProt P45985)
Method in brief: as §1

[21] = target: MAPK13A (Homo sapiens, UniProt O15264)
MAPK13A, sequence (O15264 whole entry): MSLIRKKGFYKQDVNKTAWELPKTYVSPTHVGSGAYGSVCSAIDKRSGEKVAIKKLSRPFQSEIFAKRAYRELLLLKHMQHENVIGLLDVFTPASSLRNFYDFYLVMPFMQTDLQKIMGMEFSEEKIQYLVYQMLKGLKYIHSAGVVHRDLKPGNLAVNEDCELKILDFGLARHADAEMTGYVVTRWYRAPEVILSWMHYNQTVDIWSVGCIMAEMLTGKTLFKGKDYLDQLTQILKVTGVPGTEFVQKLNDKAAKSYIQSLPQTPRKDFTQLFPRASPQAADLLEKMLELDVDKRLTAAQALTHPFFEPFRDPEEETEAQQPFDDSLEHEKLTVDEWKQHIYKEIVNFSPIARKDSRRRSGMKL
Method in brief: as §1

[22] = target: MAPK14A (Homo sapiens, UniProt Q16539)
MAPK14A, sequence (Q16539 whole entry): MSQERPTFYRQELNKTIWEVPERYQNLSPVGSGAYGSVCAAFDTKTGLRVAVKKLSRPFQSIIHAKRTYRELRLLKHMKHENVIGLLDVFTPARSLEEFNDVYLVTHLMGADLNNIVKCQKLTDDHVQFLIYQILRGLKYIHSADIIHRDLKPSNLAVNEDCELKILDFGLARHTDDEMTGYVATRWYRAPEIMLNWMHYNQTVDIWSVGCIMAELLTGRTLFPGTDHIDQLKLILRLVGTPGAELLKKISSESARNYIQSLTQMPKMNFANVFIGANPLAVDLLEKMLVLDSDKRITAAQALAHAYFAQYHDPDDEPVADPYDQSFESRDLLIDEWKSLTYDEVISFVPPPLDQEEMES
Method in brief: as §1

[23] = target: MAPK8B (Homo sapiens, UniProt P45983)
Method in brief: as §1

[24] = target: MELKA (Homo sapiens, UniProt Q14680)
MELKA, sequence (Q14680 1-340): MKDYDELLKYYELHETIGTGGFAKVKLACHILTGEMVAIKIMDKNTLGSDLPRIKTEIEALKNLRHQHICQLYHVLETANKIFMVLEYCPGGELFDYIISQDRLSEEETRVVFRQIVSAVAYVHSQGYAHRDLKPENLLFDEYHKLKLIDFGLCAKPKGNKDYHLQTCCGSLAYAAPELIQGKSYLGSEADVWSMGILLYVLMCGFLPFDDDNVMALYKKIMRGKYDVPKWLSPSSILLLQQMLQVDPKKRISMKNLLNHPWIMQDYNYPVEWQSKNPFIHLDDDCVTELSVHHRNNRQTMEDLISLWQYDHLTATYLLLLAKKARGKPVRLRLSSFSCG
Method in brief: as §1

[25] = target: MST3A (Homo sapiens, UniProt Q9Y6E0)
MST3A, sequence (Q9Y6E0 27-315): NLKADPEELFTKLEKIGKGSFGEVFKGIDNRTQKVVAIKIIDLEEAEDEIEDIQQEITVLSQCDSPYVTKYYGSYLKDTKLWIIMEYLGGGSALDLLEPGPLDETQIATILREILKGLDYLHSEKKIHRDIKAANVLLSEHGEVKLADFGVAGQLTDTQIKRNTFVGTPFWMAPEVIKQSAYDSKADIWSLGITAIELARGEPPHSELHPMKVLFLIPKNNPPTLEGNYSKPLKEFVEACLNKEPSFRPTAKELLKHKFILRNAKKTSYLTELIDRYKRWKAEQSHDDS
Method in brief: as §1

[26] = target: NEK1A (Homo sapiens, UniProt Q96PY6)
NEK1A, sequence (Q96PY6 1-328): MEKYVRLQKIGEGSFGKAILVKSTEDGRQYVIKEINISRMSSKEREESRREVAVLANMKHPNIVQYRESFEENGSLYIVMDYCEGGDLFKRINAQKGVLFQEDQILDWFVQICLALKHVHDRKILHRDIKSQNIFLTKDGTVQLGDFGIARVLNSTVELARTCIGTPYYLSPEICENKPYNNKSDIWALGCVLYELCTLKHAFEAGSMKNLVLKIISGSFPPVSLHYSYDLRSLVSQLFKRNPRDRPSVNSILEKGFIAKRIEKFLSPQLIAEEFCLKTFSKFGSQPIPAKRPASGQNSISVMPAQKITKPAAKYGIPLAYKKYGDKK
Method in brief: as §1

[27] = target: NEK7A (Homo sapiens, UniProt Q8TDX7)
Method in brief: as §1

[28] = target: OSR1A (Homo sapiens, UniProt O95747)
OSR1A, sequence (O95747 17-291): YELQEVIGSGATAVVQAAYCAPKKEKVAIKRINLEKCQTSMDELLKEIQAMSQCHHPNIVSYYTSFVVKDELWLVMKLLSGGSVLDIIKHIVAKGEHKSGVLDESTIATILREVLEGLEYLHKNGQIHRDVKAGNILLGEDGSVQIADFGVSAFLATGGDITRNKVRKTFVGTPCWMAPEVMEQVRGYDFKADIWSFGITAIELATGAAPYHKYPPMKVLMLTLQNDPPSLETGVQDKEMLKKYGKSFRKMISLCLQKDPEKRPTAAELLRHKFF
Method in brief: as §1

[29] = target: PAK1A (Homo sapiens, UniProt Q13153)
Method in brief: as §1

[30] = target: PHKG2A (Homo sapiens, UniProt P15735)
PHKG2A, sequence (P15735 6-293): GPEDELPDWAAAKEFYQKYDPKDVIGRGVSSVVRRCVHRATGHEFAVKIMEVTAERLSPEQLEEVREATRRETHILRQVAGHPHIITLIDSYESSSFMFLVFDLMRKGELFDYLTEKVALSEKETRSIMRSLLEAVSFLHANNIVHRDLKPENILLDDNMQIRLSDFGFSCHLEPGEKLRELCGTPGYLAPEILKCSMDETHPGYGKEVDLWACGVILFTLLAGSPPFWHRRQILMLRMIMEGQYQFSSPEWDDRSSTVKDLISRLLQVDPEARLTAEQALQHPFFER
Method in brief: as §1

[31] = target: PKMYT1A (Homo sapiens, UniProt Q99640)
Method in brief: as §1

[32] = target: PLK4A (Homo sapiens, UniProt O00444)
Method in brief: as §1

[33] = tested on: RPS6KA1A
Method in brief: as §1

[34] = tested on: RPS6KA5A
Method in brief: as §1

[35] = target: SLKA (Homo sapiens, UniProt Q9H2G2)
Method in brief: as §1

[36] = target: STK10A (Homo sapiens, UniProt O94804)
Method in brief: as §1

[37] = target: STK17AA (Homo sapiens, UniProt Q9UEE5)
STK17AA, sequence (Q9UEE5 61-321): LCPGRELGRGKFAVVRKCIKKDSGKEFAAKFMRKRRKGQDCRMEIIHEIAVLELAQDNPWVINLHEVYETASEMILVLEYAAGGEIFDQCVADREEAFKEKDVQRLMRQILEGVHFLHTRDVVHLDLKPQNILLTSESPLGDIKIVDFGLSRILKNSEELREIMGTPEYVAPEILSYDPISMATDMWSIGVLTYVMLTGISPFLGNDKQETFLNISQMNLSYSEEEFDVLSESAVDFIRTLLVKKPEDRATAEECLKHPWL
Method in brief: as §1

[38] = target: STK38LA (Homo sapiens, UniProt Q9Y2H1)
STK38LA, sequence (Q9Y2H1 90-453): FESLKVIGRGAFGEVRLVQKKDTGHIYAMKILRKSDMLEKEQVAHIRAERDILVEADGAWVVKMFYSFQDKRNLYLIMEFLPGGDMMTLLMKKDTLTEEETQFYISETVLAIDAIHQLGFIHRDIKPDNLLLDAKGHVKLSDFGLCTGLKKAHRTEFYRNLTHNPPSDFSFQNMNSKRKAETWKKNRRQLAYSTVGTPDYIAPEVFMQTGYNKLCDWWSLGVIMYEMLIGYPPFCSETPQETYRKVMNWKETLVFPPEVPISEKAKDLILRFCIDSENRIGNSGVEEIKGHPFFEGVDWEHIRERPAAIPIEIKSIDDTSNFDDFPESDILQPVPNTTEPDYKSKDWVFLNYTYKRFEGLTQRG
Method in brief: as §1

[39] = tested on: TAF1A
Method in brief: as §1

[40] = target: ULK3A (Homo sapiens, UniProt Q6PHR2)
Method in brief: as §1

[41] = target: VRK1A (Homo sapiens, UniProt Q99986)
VRK1A, sequence (Q99986 whole entry): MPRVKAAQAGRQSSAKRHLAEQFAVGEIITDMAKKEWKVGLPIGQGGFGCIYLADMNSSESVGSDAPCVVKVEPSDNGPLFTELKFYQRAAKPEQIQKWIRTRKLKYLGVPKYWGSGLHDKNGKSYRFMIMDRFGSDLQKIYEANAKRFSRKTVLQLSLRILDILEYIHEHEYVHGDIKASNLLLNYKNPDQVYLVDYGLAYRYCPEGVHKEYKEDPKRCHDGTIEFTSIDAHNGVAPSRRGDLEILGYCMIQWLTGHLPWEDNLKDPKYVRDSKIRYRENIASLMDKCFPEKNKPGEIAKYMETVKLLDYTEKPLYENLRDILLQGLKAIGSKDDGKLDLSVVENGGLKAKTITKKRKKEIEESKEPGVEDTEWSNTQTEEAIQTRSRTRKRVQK
Method in brief: as §1

Question: What does the source list for `CN1C(=O)[C@@H](N2CCc3c(nn(Cc4ccccc4)c3C(N)=O)C2=O)COc2cc(Cl)ccc21` [Compound 10, (S)-2-benzyl-6-(8-chloro-5-methyl-4-oxo-2,3,4,5-tetrahydrobenzo[b][1,4]oxazepin-3-yl)-7-oxo-4,5,6,7-tetrahydro-2H-pyrazolo[3,4-c]pyridine-3-carboxamide]?
Answer: ΔTm at 10 µM [1]: 0 °C; ΔTm at 10 µM [2]: 0.3 °C; ΔTm at 10 µM [3]: 0.1 °C; ΔTm at 10 µM [4]: -0.2 °C; ΔTm at 10 µM [5]: 0.1 °C; ΔTm at 10 µM [6]: 0.1 °C; ΔTm at 10 µM [7]: 0 °C; ΔTm at 10 µM [8]: 0.5 °C; ΔTm at 10 µM [9]: -0.1 °C; ΔTm at 10 µM [10]: -0.1 °C; ΔTm at 10 µM [11]: 0.1 °C; ΔTm at 10 µM [12]: 0 °C; ΔTm at 10 µM [13]: 0.1 °C; ΔTm at 10 µM [14]: -0.1 °C; ΔTm at 10 µM [15]: 0.1 °C; ΔTm at 10 µM [16]: 0 °C; ΔTm at 10 µM [17]: -0.2 °C; ΔTm at 10 µM [18]: 0.1 °C; ΔTm at 10 µM [19]: 0.1 °C; ΔTm at 10 µM [20]: 0.1 °C; ΔTm at 10 µM [21]: -0.1 °C; ΔTm at 10 µM [22]: 0.1 °C; ΔTm at 10 µM [23]: 0.1 °C; ΔTm at 10 µM [24]: 0.1 °C; ΔTm at 10 µM [25]: -0.3 °C; ΔTm at 10 µM [26]: 0.1 °C; ΔTm at 10 µM [27]: 0 °C; ΔTm at 10 µM [28]: 0.4 °C; ΔTm at 10 µM [29]: 0.2 °C; ΔTm at 10 µM [30]: 0 °C; ΔTm at 10 µM [31]: -0.1 °C; ΔTm at 10 µM [32]: 0.2 °C; ΔTM [33]: 0 K; ΔTM [34]: -0.1 K; ΔTm at 10 µM [35]: -0.3 °C; ΔTm at 10 µM [36]: 0.4 °C; ΔTm at 10 µM [37]: 0 °C; ΔTm at 10 µM [38]: 0 °C; ΔTM [39]: 0.3 K; ΔTm at 10 µM [40]: 0.2 °C; ΔTm at 10 µM [41]: -0.2 °C
